This is an account of results in patent US6214537A, “Synthetic peptides and mixtures thereof for detecting HIV antibodies” (Biochem Immunosystems, Inc., priority 1988, dated 2001).

The subject of assay [1] is HIV-1 antibodies. Particulars: cited from earlier work.
The subject of the next assay is HIV-2 antibodies. Put plainly: ELISA, single peptides identifying HIV-2 positive sera. In kind it is binding, human. The conditions noted are these: 5 tested. The protocol: A preferred convenient and classical technique for the determination of antibodies against AIDS virus using a peptide or a peptide mixture of the present invention is an enzyme-linked immunosorbent assay (ELISA). According to this test a peptide or a peptide mixture of the present invention is adsorbed onto the wells of a microtiter plate. The wells are then treated with sera to be tested. After washing, anti-human IgG labeled with peroxidase is added to the wells. The determination of the peroxidase is performed with a corresponding substrate, e.g. with o-phenylene diamine. Also in this procedure the peroxidase can be exchanged by another label, e.g. by a radioactive or fluorescence label.
The cyclic peptides of the present invention and their mixtures with one or more linear peptides were tested in accordance with the ELISA test described previously against a variety of sera, some of which were confirmed positive and others which were confirmed negative.
TABLE 4 provides the results of single peptides which were individually evaluated in identifying known HIV-2 positive sera.
(§1) Each well of the microtiter plate is saturated with 100 μl of a solution containing a peptide or mixture of peptides (5 μg/ml) and left overnight. The wells are emptied and washed twice with a washing buffer (Tris, 0.043M; NaCl, 0.5M;thimerosal, 0.01% w/v; Tween 20, 0.05% v/v; pH 7.4). The wells are then saturated with 0.35 ml of washing buffer for 1 hr. at 37° C. and washed once with the same buffer. Serum samples to be analyzed are diluted with specimen buffer (washing buffer plus casein, 0.05% w/v). The wells are rinsed with washing buffer prior to the addition of the diluted serum sample (0.1 ml). These are left to incubate for 1 hr. at room temperature. The wells are then emptied, washed twice rapidly and then once for two minutes with washing buffer. […] The wells are then emptied and washed twice rapidly with washing buffer and then five times in which the buffer was in contact with the well 2 minutes per washing.
(§2) The substrate solution (3,3', 5,5'-tetramethylbenzidine, 8 mg per ml of DMSO) is diluted with 100 volumes 0.1M citrate-acetate buffer, pH 5.6 containing 0.1% v/v of 30% H2 O2 and added to each well (0.1 ml per well). After 10 minutes the contents of each well is treated with 0.1 ml 2N H2 SO4 and the optical density read at 450 nm. All determinations are done in duplicate.
On the technique in general: ELISA stands for enzyme-linked immunosorbent assay.

The test system of assay [2] is HIV-1 antibodies. Put plainly: ELISA, single peptides identifying HIV-1 positive sera. In kind it is binding, human. Particulars: ELISA, single peptide. On the procedure:
According to this test a peptide or a peptide mixture of the present invention is adsorbed onto the wells of a microtiter plate. The wells are then treated with sera to be tested. After washing, anti-human IgG labeled with peroxidase is added to the wells. The determination of the peroxidase is performed with a corresponding substrate, e.g. with o-phenylene diamine. Also in this procedure the peroxidase can be exchanged by another label, e.g. by a radioactive or fluorescence label.
as §1, §2

The next assay has as its system HIV-1-antibodies. The assay can be described thus: ELISA, cyclic versus non-cyclic peptides, sera at various dilutions. It is filed as binding, human. The protocol: TABLE 5 is provided to illustrate the sensitivity of cyclic versus noncyclic peptides in the ELISA test by comparing the results of some sera at various dilutions.
Plates used in this experiment were coated with solutions of peptides at 10 μg/ml. (Experimental results of TABLE 5 were obtained with plates coated with peptides at 0,5 μg/ml). Four different HIV-1 positive serum samples were serially diluted and their titers determined. The titer was defined as the serum dilution giving an absorbancy reading of 1:0 in the conditions of the ELISA procedure already described.
as §1, §2

As to “7-mer peptide: SGKLIC with a cysteine residue added to the N-terminus (605-611), Gnann et al.”, in the assay with HIV-1 antibodies [1] (HIV-1 seropositive samples, literature), the sensitivity is 48%.
As to `CC[C@H](C)[C@H](NC(=O)[C@H](C)NC(=O)[C@@H](NC(=O)[C@@H](NC(=O)[C@@H](N)CCCNC(=N)N)C(C)C)[C@@H](C)O)C(=O)N[C@@H](CCC(=O)O)C(=O)N[C@@H](CCCCN)C(=O)N[C@@H](Cc1ccc(O)cc1)C(=O)N[C@@H](CC(C)C)C(=O)N[C@@H](CCC(N)=O)C(=O)N[C@@H](CC(=O)O)C(=O)N[C@@H](CCC(N)=O)C(=O)N[C@@H](C)C(=O)N[C@@H](CCCNC(=N)N)C(=O)N[C@@H](CC(C)C)C(=O)N[C@@H](CC(N)=O)C(=O)N[C@@H](CO)C(=O)N[C@@H](Cc1c[nH]c2ccccc12)C(=O)NCC(=O)N[C@H]1CSSC[C@@H](C(=O)N[C@@H](Cc2c[nH]cn2)C(=O)N[C@H](C(=O)N[C@H](C(=O)N[C@H](C(=O)N2CCC[C@H]2C(=O)N[C@@H](Cc2c[nH]c3ccccc23)C(=O)N[C@H](C(=O)N[C@@H](CC(N)=O)C(=O)N[C@@H](CC(=O)O)C(=O)N[C@@H](CO)C(=O)O)C(C)C)C(C)C)[C@@H](C)O)[C@@H](C)O)NC(=O)[C@H](C(C)C)NC(=O)[C@H](CCC(N)=O)NC(=O)[C@H](CCCNC(=N)N)NC(=O)[C@H](Cc2ccccc2)NC(=O)[C@H](C)NC1=O` [Peptide 202], the “% Positive Sera correctly Identified” value with HIV-2 antibodies is given as 100%.
Take SGKLIC: the “immunoreactivity with HIV-1 positive sera” value in the assay with HIV-1 antibodies [1] (22 HIV-1 positive sera tested, Gnann et al.) is “not immunoreactive”.
Consider “NH2 -GCSGKLICTTAVPWNAS-COOH (H-GCSGKLICTTAVPWNAS-OH; cysteine pairing not given here) [Peptide 77, linear peptide, gp41 604-620]”, for which the “% Positive Sera correctly Identified” value in the assay with HIV-1 antibodies [2] is recorded as 100%. The ELISA optical density in the assay on HIV-1-antibodies (serum 87V103, dilution 1/50) came to 0.000 optical density units; with HIV-1-antibodies (serum 1428, dilution 1/50) it was 0.926 optical density units; with HIV-1-antibodies (serum M-5, dilution 1/50), 1.719 optical density units; with HIV-1-antibodies (serum M-5, dilution 1/100) it was 1.459 optical density units; with HIV-1-antibodies (serum M-5, dilution 1/200), 1.248 optical density units; with HIV-1-antibodies (serum M-5, dilution 1/400), 0.959 optical density units. Besides, the ELISA optical density in the assay on HIV-1-antibodies (serum M-5, dilution 1/800) is 0.057 optical density units; in the assay on HIV-1-antibodies (serum M-7, dilution 1/50) it was 0.142 optical density units; in the assay on HIV-1-antibodies (serum M-7, dilution 1/100), 0.025 optical density units; with HIV-1-antibodies (serum M-7, dilution 1/200), 0.007 optical density units; in the assay with HIV-1-antibodies (serum M-7, dilution 1/400), 0.001 optical density units; with HIV-1-antibodies (serum M-7, dilution 1/800), 0.000 optical density units. For the same molecule, the ELISA optical density with HIV-1-antibodies (serum M-8, dilution 1/50) turned out to be 0.795 optical density units; with HIV-1-antibodies (serum M-8, dilution 1/100), 0.507 optical density units; in the assay on HIV-1-antibodies (serum M-8, dilution 1/200) it was 0.376 optical density units; in the assay with HIV-1-antibodies (serum M-8, dilution 1/400), 0.209 optical density units; in the assay on HIV-1-antibodies (serum M-8, dilution 1/800), 0.062 optical density units; with HIV-1-antibodies (serum M-16, dilution 1/50), 1.219 optical density units. Besides, the ELISA optical density with HIV-1-antibodies (serum M-16, dilution 1/100) came out at 0.962 optical density units; in the assay on HIV-1-antibodies (serum M-16, dilution 1/200), 0.613 optical density units; in the assay on HIV-1-antibodies (serum M-16, dilution 1/400), 0.301 optical density units; in the assay with HIV-1-antibodies (serum M-16, dilution 1/800), 0.205 optical density units.
For the molecule `CC[C@H](C)[C@H](NC(=O)[C@H](CCC(=O)O)NC(=O)[C@@H](NC(=O)[C@@H](N)CC(C)C)C(C)C)C(=O)N[C@H](C(=O)N1CCC[C@H]1C(=O)N[C@H](C(=O)NCC(=O)N[C@@H](Cc1ccccc1)C(=O)N[C@@H](C)C(=O)N1CCC[C@H]1C(=O)N[C@H](C(=O)N[C@@H](CCCCN)C(=O)N[C@@H](CCC(=O)O)C(=O)N[C@@H](CCCCN)C(=O)N[C@@H](CCCNC(=N)N)C(=O)N[C@@H](Cc1ccc(O)cc1)C(=O)N[C@@H](CO)C(=O)N[C@@H](CO)C(=O)N[C@@H](C)C(=O)N[C@@H](Cc1c[nH]cn1)C(=O)NCC(=O)N[C@@H](CCCNC(=N)N)C(=O)O)[C@@H](C)O)[C@@H](C)CC)[C@@H](C)O` [Peptide 203], the “% Positive Sera correctly Identified” value in the assay with HIV-2 antibodies is 100%.
The same measure, in the same setting: the result for `CC[C@H](C)[C@H](NC(=O)[C@H](C)NC(=O)[C@@H](NC(=O)[C@@H](NC(=O)[C@@H](N)CCCNC(=N)N)C(C)C)[C@@H](C)O)C(=O)N[C@@H](CCC(=O)O)C(=O)N[C@@H](CCCCN)C(=O)N[C@@H](Cc1ccc(O)cc1)C(=O)N[C@@H](CC(C)C)C(=O)N[C@@H](CCC(N)=O)C(=O)N[C@@H](CC(=O)O)C(=O)N[C@@H](CCC(N)=O)C(=O)N[C@@H](C)C(=O)N[C@@H](CCCNC(=N)N)C(=O)N[C@@H](CC(C)C)C(=O)N[C@@H](CC(N)=O)C(=O)N[C@@H](CO)C(=O)N[C@@H](Cc1c[nH]c2ccccc12)C(=O)NCC(=O)N[C@H]1CSSC[C@@H](C(N)=O)NC(=O)[C@H](C(C)C)NC(=O)[C@H](CCC(N)=O)NC(=O)[C@H](CCCNC(=N)N)NC(=O)[C@H](Cc2ccccc2)NC(=O)[C@H](C)NC1=O` [Peptide 146] reads 100%.
Still for that read-out and setting: the result for `CC(C)C[C@H](NC(=O)[C@H](CCCNC(=N)N)NC(=O)[C@H](C)NC(=O)[C@H](CCC(N)=O)NC(=O)[C@H](CC(=O)O)NC(=O)[C@@H](N)CCC(N)=O)C(=O)N[C@@H](CC(N)=O)C(=O)N[C@@H](CO)C(=O)N[C@@H](Cc1c[nH]c2ccccc12)C(=O)NCC(=O)N[C@H]1CSSC[C@@H](C(=O)N[C@@H](Cc2c[nH]cn2)C(=O)N[C@H](C(=O)N[C@H](C(=O)N[C@H](C(=O)N2CCC[C@H]2C(=O)N[C@@H](Cc2c[nH]c3ccccc23)C(=O)N[C@H](C(=O)N[C@@H](CC(N)=O)C(=O)N[C@@H](CC(=O)O)C(=O)N[C@@H](CO)C(N)=O)C(C)C)C(C)C)[C@@H](C)O)[C@@H](C)O)NC(=O)[C@H](C(C)C)NC(=O)[C@H](CCC(N)=O)NC(=O)[C@H](CCCNC(=N)N)NC(=O)[C@H](Cc2ccccc2)NC(=O)[C@H](C)NC1=O` [Peptide 147] reads 100%.
Still for that read-out and setting: the result for `CC[C@H](C)[C@H](NC(=O)[C@H](CCC(=O)O)NC(=O)[C@@H](NC(=O)[C@@H](N)CC(C)C)C(C)C)C(=O)N[C@H](C(=O)N1CCC[C@H]1C(=O)N[C@H](C(=O)NCC(=O)N[C@@H](Cc1ccccc1)C(=O)N[C@@H](C)C(=O)N1CCC[C@H]1C(=O)N[C@H](C(=O)N[C@@H](CCCCN)C(=O)N[C@@H](CCC(=O)O)C(=O)N[C@@H](CCCCN)C(=O)N[C@@H](CCCNC(=N)N)C(=O)O)[C@@H](C)O)[C@@H](C)CC)[C@@H](C)O` [Peptide 204] reads 100%; that for `CC(=O)N[C@@H](CCC(N)=O)C(=O)N[C@@H](CC(=O)O)C(=O)N[C@@H](CCC(N)=O)C(=O)N[C@@H](C)C(=O)N[C@@H](CCCNC(=N)N)C(=O)N[C@@H](CC(C)C)C(=O)N[C@@H](CC(N)=O)C(=O)N[C@@H](CO)C(=O)N[C@@H](Cc1c[nH]c2ccccc12)C(=O)NCC(=O)N[C@H]1CSSC[C@@H](C(N)=O)NC(=O)[C@H](C(C)C)NC(=O)[C@H](CCC(N)=O)NC(=O)[C@H](CCCNC(=N)N)NC(=O)[C@H](Cc2ccccc2)NC(=O)[C@H](C)NC1=O` [Peptide 200], 100%; that for `CC(C)[C@@H]1NC(=O)[C@H](CCC(N)=O)NC(=O)[C@H](CCCNC(=N)N)NC(=O)[C@H](Cc2ccccc2)NC(=O)[C@H](C)NC(=O)[C@@H](NC(=O)CN)CSSC[C@@H](C(=O)N[C@@H](Cc2c[nH]cn2)C(=O)N[C@H](C(=O)N[C@H](C(=O)N[C@H](C(=O)N2CCC[C@H]2C(=O)N[C@@H](Cc2c[nH]c3ccccc23)C(=O)N[C@H](C(=O)N[C@@H](CC(N)=O)C(=O)N[C@@H](CC(=O)O)C(=O)N[C@@H](CO)C(=O)O)C(C)C)C(C)C)[C@@H](C)O)[C@@H](C)O)NC1=O` [Peptide 201], 100%.
